Measured values published in article PMC6112376, “Comprehensive Analyses and Prioritization of Tox21 10K Chemicals Affecting Mitochondrial Function by in-Depth Mechanistic Studies” (Environmental Health Perspectives, 2018).
Counter-ions that a name gives are not always drawn. Like-named read-outs stand apart in the source and are kept apart here.

What was measured:
HepG2 cells [1] = conditions: cited from earlier work
HepG2 cells [2] = assay: cells; conditions: Homo sapiens; for IC50: HepG2, read-out: MMP assays IC50 (µM) HepG2; for Emax: HepG2, read-out: MMP assays efficacy (%) HepG2
rat primary hepatocytes = assay: MMP assay in rat primary hepatocytes; conditions: for IC50: Rattus norvegicus, Hepatocyte, read-out: MMP assays IC50 (µM) Rat Hepatocytes; for MMP assays efficacy (%) Rat Hepatocytes / MMP assays IC50 (µM) Rat Hepatocytes: mean ± SD of three experiments
[3] = read-out: MMP assays IC50 (µM), qHTS-HepG2
[4] = read-out: MMP assays IC50 (µM) qHTS-HepG2

Row | SMILES | MMP assays efficacy (%) qHTS-HepG2 (HepG2 cells [1]) | IC50 (HepG2 cells [1]; [3]) | IC50 (HepG2 cells [2]) | Emax (HepG2 cells [2]) | IC50 (rat primary hepatocytes) | MMP assays efficacy (%) Rat Hepatocytes (rat primary hepatocytes) | IC50 (HepG2 cells [1]; [4]) | MMP assays IC50 (µM) Rat Hepatocytes (rat primary hepatocytes)
1 | CC(C)=CCOc1ccc(/C=C/C(=O)c2ccc(OCC=C(C)C)cc2OCC(=O)O)cc1 [Sofalcone] | -118±8% | 24.6 ± 1.67 µM | 17.3 µM | 92% | 19.5 ± 2.25 µM | -65±23% |  | 
2 | COc1cc(C(=O)NS(=O)(=O)c2ccccc2C)ccc1Cc1cn(C)c2ccc(NC(=O)OC3CCCC3)cc12 [Zafirlukast] | -108±3% | 10.6 ± 1.22 µM | 13.8 µM | 105% | 3.43 ± 1.47 µM | -114±33% |  | 
3 | CC(C)(C)c1ccc(O)c(C(C)(C)C)c1 [2,4-Di-tert-butylphenol] | -95±5% |  | 3.98 µM | 101% | 24 ± 16.6 µM | -131±66% | 3.5 ± 0.73 µM | 
4 | C#C[C@]1(O)CC[C@H]2[C@@H]3CCC4=CC(=NO)CC[C@@H]4[C@H]3CC[C@@]21CC (mixture of isomers) [Norelgestromin] | -122±2% | 13.5 ± 6.64 µM | 19.4 µM | 121% | 13.4 ± 12.3 µM | -55±21% |  | 
5 | Oc1ccc(C(c2ccc(O)cc2)(C(F)(F)F)C(F)(F)F)cc1 [Bisphenol AF] | -114±10% |  | 5.01 µM | 102% | 37.3 ± 6.7 µM |  | 5.44 ± 1.42 µM | 
6 | CC(=O)Oc1ccc2c(c1)CC[C@@H]1[C@@H]2CC[C@]2(C)[C@@H](O)CC[C@@H]12 [Estradiol acetate] | -85±4% |  | 17.3 µM | 95% |  | inactive | 9.08 ± 0.59 µM | inactive
7 | COc1ccc(-c2coc3cc(O)ccc3c2=O)cc1 [Formononetin] | -85±16% | 13.2 ± 4.88 µM | 17.8 µM | 80% | 13.2 ± 16.2 µM | -74±27% |  | 
8 | CCc1ccc(O)c(C(C)(C)C)c1 [Compound 2-tert-Butyl-4-ethylphenol] | -103±6% |  | 15.8 µM | 95% |  | inactive | 11.3 ± 2.6 µM | inactive
9 | Oc1ccc(-c2ccccc2)cc1Cl [Compound 2-Chloro-4-phenylphenol] | -138±26% |  | 15.8 µM | 99% | 31.8 ± 3.65 µM | -109±36% | 15.4 ± 7.86 µM | 
10 | Oc1cc(O)c(Cl)cc1Cl [4,6-Dichloro-1,3-benzenediol] | -100±10% |  | 15.8 µM | 108% | 35.7 ± 5.79 µM | -37±3% | 9.55 ± 2.74 µM | 
11 | Cc1c(C(=O)NN2CCCCC2)nn(-c2ccc(Cl)cc2Cl)c1-c1ccc(Cl)cc1 [Rimonabant] | -127±12% | 25.6 ± 1.67 µM | 17.3 µM | 73% | 17.4 ± 2.83 µM | -53±1% |  | 
12 | COC(=O)C1=C(C)NC(C)=C(C(=O)OCCN2CCN(C(c3ccccc3)c3ccccc3)CC2)C1c1cccc([N+](=O)[O-])c1 (stereo not drawn) [Manidipine] | -95±13% | 12.2 ± 6.82 µM | 27.5 µM | 98% | 20.9 ± 5.06 µM | -40±8% |  | 
13 | CC(=O)Oc1cccc2c1C(=O)c1c(OC(C)=O)cc(C(=O)O)cc1C2=O [Diacerein] | -81±16% |  | 17.3 µM | 61% | 14.2 ± 11.3 µM | -70±14% | 20.6 ± 8.26 µM | 
14 | CCN(CC)c1ccc(N)cc1 [N,N-Diethylbenzene-1,4-diamine] | -103±16% | 49.9 ± 3.51 µM | 7.94 µM | 118% | 31.6 µM | -105±29% |  | 
15 | CCC(=O)O[C@]1(C(=O)CCl)[C@@H](C)C[C@H]2[C@@H]3C[C@H](F)C4=CC(=O)C=C[C@]4(C)[C@@]3(F)[C@@H](O)C[C@@]21C [Halobetasol propionate] | -106±7% | 15.2 ± 5.52 µM | 13.8 µM | 127% | 25.2 ± 7.02 µM | -82±13% |  | 
16 | Cc1ccc(C(C)(C)C)c(O)c1 [Compound 2-tert-Butyl-5-methylphenol] | -96±7% |  | 5.01 µM | 95% | 40.1 ± 6.5 µM | -66±11% | 23.5 ± 2.85 µM | 
17 | Oc1ccc(Cl)c2cccnc12 [Cloxyquin] | -58±10% |  | 15.5 µM | 79% |  | inactive | 16.8 ± 5.94 µM | inactive
18 | Cc1ccc2c(Cl)cc(Cl)c(O)c2n1 [5,7-Dichloro-8-hydroxy-2-methylquinoline] | -120±20% |  | 1.38 µM | 60% |  | inactive | 11 ± 2 µM | inactive

Row | SMILES | MMP assays efficacy (%) qHTS-HepG2 (HepG2 cells [1]) | IC50 (HepG2 cells [1]; [3]) | IC50 (HepG2 cells [2]) | Emax (HepG2 cells [2]) | IC50 (rat primary hepatocytes) | MMP assays efficacy (%) Rat Hepatocytes (rat primary hepatocytes) | IC50 (HepG2 cells [1]; [4]) | MMP assays IC50 (µM) Rat Hepatocytes (rat primary hepatocytes)
19 | C=C1/C(=C\C=C2/CCC[C@]3(C)[C@@H]([C@H](C)/C=C/[C@@H](O)C4CC4)CC[C@@H]23)C[C@@H](O)C[C@@H]1O [Calcipotriene] | -63±12% |  | 21.8 µM | 124% | 17.3 µM | -63±23% | 26 ± 3.89 µM | 
20 | O=C(Nc1ncc([N+](=O)[O-])s1)c1cccs1 [Tenonitrozole] | -95±3% | 0.73 ± 0.12 µM | 0.56 µM | 99% | 0.68 ± 0.45 µM |  |  | 
21 | O=C1c2cccc(O)c2C(=O)c2c(O)cc(CO)cc21 [Aloe-emodin] | -78±8% |  | 7.08 µM | 90% | 8.43 ± 5.96 µM | -48±19% | 1.79 ± 1.54 µM | 
22 | CCc1c(C(=O)NN2CCCCC2)nn(-c2ccc(Cl)cc2Cl)c1-c1ccc(Br)cc1 [Surinabant] | -97±6% | 33.1 ± 16.6 µM | 19.9 µM | 94% | 34.3 ± 22.5 µM | -81±29% |  | 
23 | Nc1cc([N+](=O)[O-])ccc1C(=O)O [4-Nitroanthranilic acid] | -62±14% |  | 17.8 µM | 51% |  | inactive | 38.6 ± 17.2 µM | inactive
24 | CC(C)(C)c1cc(/C=C2\SC(N)=NC2=O)cc(C(C)(C)C)c1O [Darbufelone mesylate] | -110±13% |  | 5.62 µM | 102% | 7.15 ± 5.41 µM | -105±22% | 11.7 ± 2.02 µM | 
25 | CCC(=O)Oc1ccc(/C(CC)=C(\CC)c2ccc(OC(=O)CC)cc2)cc1 [Diethylstilbestrol dipropionate] | -112±3% |  | 7.08 µM | 101% | 49.3 ± 19.5 µM | -38±22% | 10.5 ± 2.66 µM | 
26 | CC(C)(C)CC(C)(C)c1ccc(O)c(Cc2ccc(Cl)cc2Cl)c1 [Clofoctol] | -112±5% |  | 4.35 µM | 92% | 15.7 ± 6.04 µM | -65±37% | 1.64 ± 0.13 µM | 
27 | O=C(c1ccccc1)c1ccc(O)cc1 [Compound 4-Hydroxybenzophenone] | -87±12% |  | 28.2 µM | 116% | 17.8 ± 28 µM | -82±39% | 41.3 ± 18.1 µM | 
28 | N#CC(C#N)=Cc1ccc(O)c(O)c1 [Tyrphostin 23] | -107±6% | 17.7 ± 6.46 µM | 17.3 µM | 103% |  | inactive |  | inactive
29 | OCc1c2ccccc2cc2ccccc12 [Compound 9-Anthracenemethanol] | -104±23% |  | 19.9 µM | 88% | 21.7 ± 15.7 µM | -68±25% | 34.5 ± 11.5 µM | 
30 | Nc1ccc([N+](=O)[O-])cc1O [Compound 2-Amino-5-nitrophenol] | -70±18% |  | 35.5 µM | 76% | 52.1 ± 17.7 µM | -63±37% | 27.4 ± 14.1 µM | 
31 | O=c1cc(-c2ccccc2)oc2cc(O)cc(O)c12 [Chrysin] | -103±9% |  | 7.08 µM | 105% | 30.6 ± 28.4 µM | -78±36% | 5.05 ± 2.76 µM | 
32 | Cc1cc(O)c(C(C)(C)C)cc1C(C)(C)C [4,6-Di-tert-butyl-m-cresol] |  |  | 2.51 µM | 96% | 45.9 ± 14.7 µM | -103±14% | 2.25 ± 1.49 µM | 
33 | CC/C(=C(/CC)c1ccc(O)cc1)c1ccc(O)cc1 [Diethylstilbestrol] | -105±14% |  |  | 112% | 25.2 ± 21.7 µM |  |  | 
34 | Oc1ccc(OCc2ccccc2)cc1 [4-(Benzyloxyl)phenol] | -87±9% |  | 7.4 µM | 93% | 9.04 ± 8.1 µM | -46±35% | 18.5 ± 1.51 µM | 
35 | Clc1ccc(Sc2cc(Cl)c(Cl)cc2Cl)cc1 [Tetrasul] | -77±0% | 1.77 ± 0.25 µM | 2.51 µM | 72% |  | inactive |  | inactive
